The record followed here is US20240174695A1, “Spirocycle Containing Bicyclic Heteroaryl Compounds” (Protego Biopharma, Inc., priority 2022, published 2024).

Structures are written as SMILES.

The test relates to Recombinant amyloidogenic full length light chain protein WIL-FL T46L. The test is described as follows: Differential Scanning Fluorimetry Assay (thermal shift assay). Further: test concentration or dose not given here. It is filed as binding. The conditions noted are these: Thermal Shift Protein Stability Kit (Biotium), 96-well plates; protein and compounds incubated at RT for 30 min before adding the dye. The procedure, abridged: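 E. coli-expressed full-length WIL-FL T46L light chain pre-incubated with compound 30 min at RT before dye addition. Tm obtained by curve fitting of the dye thermal-melt signal; value is ΔTm, compound minus vehicle, in °C.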
In general terms: Differential scanning fluorimetry follows unfolding on heating by fluorescence.
With `Cc1cc(OC[C@H](C)c2ccccc2)cn2nc(CCN3CC4(CCN(c5nccn6cncc56)CC4)NC3=O)nc12` [Compound 63], the “DSF temperature shift: [Tm]compound−[Tm]vehicle” value (from here on “DSF temperature shift”) is on record as “**** (>1.5-2.5° C.=****)”. As to `COc1cccc(N2CCC3(CC2)CN(CC(O)c2nc4c(C)cc(OCC5(c6ccccc6)CC5)cn4n2)C(=O)N3)n1` (centres unmarked) [Compound 140], the “DSF temperature shift” value is “**** (>1.5-2.5° C.=****)”. `Cc1cc(OCC2(c3ccccc3)CC2)cn2nc(C(O)CN3CC4(CCN(c5cccnc5C(F)(F)F)CC4)NC3=O)nc12` (centres unmarked) [Compound 35]: the “DSF temperature shift” value is listed as “**** (>1.5-2.5° C.=****)”.

Take `Cc1cc(OC[C@H](C)c2ccccc2)cn2nc(CCN3CC4(CCN(c5ccnc(O)c5)CC4)NC3=O)nc12` [Compound 105]: the “DSF temperature shift” value is listed as “***** (>2.5° C.=*****)”.

With `Cc1cc(N2CCC(C)(c3ccccc3)C2)cn2nc(CCCN3C(=O)NC4(CCN(c5nccn6ccnc56)CC4)C3=O)nc12` (centres unmarked) [Compound 17], the “DSF temperature shift” value was “***** (>2.5° C.=*****)”. `CC(=O)N1CCC(N2CCC3(CC2)CN(CC(O)c2nc4c(C)cc(OCC5(c6ccccc6)CC5)cn4n2)C(=O)N3)CC1` (centres unmarked) [Compound 15]: the “DSF temperature shift” value is recorded as “*** (>1-1.5° C.=***)”. On to `Cc1cc(OCC2(c3ccccc3)CC2)cn2nc(C(O)CN3CC4(CCN(c5ccnc(F)n5)CC4)NC3=O)nc12` (centres unmarked) [Compound 44], for which the “DSF temperature shift” value was “***** (>2.5° C.=*****)”.

Regarding `Cc1cc(OC[C@H](C)c2ccccc2)cn2nc(C(O)CN3CC4(CCN(C(=O)Cn5nnnc5C)CC4)NC3=O)nc12` (some centres unmarked) [Compound 71], the “DSF temperature shift” value is “**** (>1.5-2.5° C.=****)”.

Turning to `COc1cc(N2CCC3(CC2)CN(CC(O)c2nc4c(C)cc(OCC5(c6ccccc6)CC5)cn4n2)C(=O)N3)ccn1` (centres unmarked) [Compound 142], the “DSF temperature shift” value is reported as “***** (>2.5° C.=*****)”. For `CNC(=O)c1cc(N2CCC3(CC2)CC(=O)N(CC(C)(O)c2nc4c(C)cc(OC[C@H](C)c5ccccc5)cn4n2)C3)ccn1` (some centres unmarked) [Compound 131], the “DSF temperature shift” value is listed as “*** (>1-1.5° C.=***)”. Take `Cc1cc(OC[C@H](C)c2ccccc2)cn2nc(CCN3CC4(CCN(C(=O)c5ncnn5C)CC4)NC3=O)nc12` [Compound 92]: the “DSF temperature shift” value was “**** (>1.5-2.5° C.=****)”. Consider `Cc1cc(OCC2(c3ccccc3)CC2)cn2nc(C(O)CN3CC4(CCN(c5nnn(C)n5)CC4)NC3=O)nc12` (centres unmarked) [Compound 62], for which the “DSF temperature shift” value is “**** (>1.5-2.5° C.=****)”. In the case of `Cc1cc(N2CC[C@@](C)(c3ccccc3)C2)cn2nc(C(O)CN3CC4(CN(c5cccc(O)n5)C4)NC3=O)nc12` (some centres unmarked) [Compound 26], the “DSF temperature shift” value is reported as “***** (>2.5° C.=*****)”. As for `Cc1cc(OC[C@H](C)c2ccccc2)cn2nc(C(O)CN3CC4(CCN(c5nccn6cnnc56)CC4)OC3=O)nc12` (some centres unmarked) [Compound 77], the “DSF temperature shift” value is listed as “**** (>1.5-2.5° C.=****)”. `Cc1cc(OCC2(c3ccccc3)CC2)cn2nc(C(O)CN3CC4(CCN(C(=O)C5(c6ccccn6)CC5)CC4)NC3=O)nc12` (centres unmarked) [Compound 29]: the “DSF temperature shift” value is reported as “***** (>2.5° C.=*****)”. Turning to `CNC(=O)c1cc(N2CCC3(CC2)CN(CC(O)c2nc4c(C)cc(OCC5(c6ccccc6)CC5)cn4n2)C(=O)N3)ccn1` (centres unmarked) [Compound 133], the “DSF temperature shift” value was “***** (>2.5° C.=*****)”. For the compound `CC[C@@]1(c2ccccc2)CCN(c2cc(C)c3nc(CCN4CC5(CCN(c6nccn7cncc67)CC5)NC4=O)nn3c2)C1` [Compound 7], the “DSF temperature shift” value is given as “***** (>2.5° C.=*****)”. Turning to `Cc1cc(OCC2(c3ccccc3)CC2)cn2nc(C(O)CN3CC4(CCN(c5cncnc5)CC4)NC3=O)nc12` (centres unmarked) [Compound 49], the “DSF temperature shift” value is recorded as “**** (>1.5-2.5° C.=****)”.

On to `Cc1ncnc(N2CCC3(CC2)CN(CCc2nc4c(C)cc(OC[C@H](C)c5ccccc5)cn4n2)C(=O)N3)c1C` [Compound 118], for which the “DSF temperature shift” value is given as “**** (>1.5-2.5° C.=****)”. Take `Cc1cnc(N2CCC3(CC2)CN(CCc2nc4c(C)cc(OC[C@H](C)c5ccccc5)cn4n2)C(=O)N3)s1` [Compound 129]: the “DSF temperature shift” value was “***** (>2.5° C.=*****)”.
